Reference: patent US11203582B2, “Benzamide derivatives for inhibiting endoplasmic reticulum (ER) stress” (The Board of Regents of the University of Oklahoma, priority 2017, dated 2021)
Like-named read-outs stand apart in the source and are kept apart here.

Tested on: INS-1 cells
Assay: Cell survival assay, intracellular ATP (CellTiter-Glo), INS-1 cells treated with Tm
Type: cell-based, rat
Settings: for EC50: read-out: EC50; for improvement of EC50 value over the corresponding ethylene derivative: methylene vs ethylene linker (9e vs 8d; 11d vs 11b)
Procedure: A structure-activity-relationship (SAR) study was thus conducted to improve the weak potency of lead compound 1. Newly synthesized or commercially available compounds were tested for their β-cell-protective activity against ER stress in rat INS-1 β-cells. […] The maximum activities and the concentrations that reach half-maximal activity (EC50) of the compounds were evaluated by the degree of increase in viability of INS-1 cells co-treated with the compounds in the presence of Tm compared with Tm treatment alone. Maximum activity value in the tables is reported as % rescue from Tm (0.1 μg/mL)-induced reduction of cell viability. The values for Tm treatment alone and control (DMSO, without Tm) treatment are designated as 0% and 100%, respectively in all tables. EC50 values (the concentrations that reach half-maximal activity) for INS-1 cell viability were calculated with GraphPad Prism from the data of ten 2-fold serial titration points in all tables. All experiments were performed in triplicate in all tables.
INS-1 cells were cultured in RPMI 1640 (Corning, N.Y., USA) supplemented with 10% FBS (Atlanta Biologicals, Norcross, Ga.), HEPES (10 mM, Life Technologies, CA, USA), sodium pyruvate (1 mM, Corning), 2-mercaptoethanol (50 μM, Sigma, St Louis, Mo., USA) and antibiotics (100 UI/mL penicillin and 100 μg/mL streptomycin, Corning). βTC6 cells were cultured in DMEM (Corning) with 15% FBS, sodium pyruvate (1 mM, Corning), non-essential amino acids (1 mM, Thermo, Ill., USA), GlutaMAX (1 mM, Life Technologies) and antibiotics (100 UI/mL penicillin and 100 μg/mL streptomycin). All cells were grown at 37° C. in a humidified 5% CO2 atmosphere.
INS-1 cells or βTC6 cells were seeded at 3×10^3 cells/well in a 384-well plate and treated with compounds at the indicated concentrations. After 3 d treatment, the medium was aspirated and 20 μL/well of CellTiter-Glo reagent (Promega, WI, USA) was added for the detection of intracellular ATP levels. Cell viability was measured with an EnVision multilabel plate reader (PerkinElmer, MA, USA).

[1] = Table 4, INS-1 cell viability, Tm 0.1 μg/mL, 72 h
[2] = Table 4, INS-1 cells, Tm 0.1 μg/mL, 72 h, Tm alone 0%, DMSO control 100%
[3] = INS-1 cells, Tm-induced ER stress
[4] = Table 3, INS-1 cell viability, Tm 0.1 μg/mL, 72 h
[5] = Table 3, INS-1 cells, Tm 0.1 μg/mL, 72 h, Tm alone 0%, DMSO control 100%
[6] = Table 2, INS-1 cell viability, Tm 0.1 μg/mL, 72 h
[7] = Table 2, INS-1 cells, Tm 0.1 μg/mL, 72 h, Tm alone 0%, DMSO control 100%
[8] = Table 5, INS-1 cell viability, Tm 0.1 μg/mL, 72 h
[9] = Table 5, INS-1 cells, Tm 0.1 μg/mL, 72 h, Tm alone 0%, DMSO control 100%

O=C(NCCc1ccc(Cl)cc1)c1ccc(CN2CCCCC2)cc1 [Compound 11a]
EC50 [1]: 21 ± 4.2 µM
Maximum activity (% rescue) [2]: 82% ± 10%

O=C(NCCc1ccccc1)c1ccc(CN2CCCCC2)cc1 [Compound 10l]
maximum activity (β-cell-protective activity) [3]: 87%
EC50 [3]: 21 µM
EC50 [4]: 21 ± 3.5 µM
Maximum activity (% rescue) [5]: 87% ± 9%
EC50 [1]: 21 ± 3.5 µM
Maximum activity (% rescue) [2]: 87% ± 6%

O=C(NCc1ccccc1Br)c1ccc2c(c1)OCCO2 [Compound 9b]
EC50 [6]: 25 ± 2.1 µM
Maximum activity (% rescue) [7]: 38% ± 14%

Nc1cccc(C(=O)NCCc2ccccc2)c1 [Compound 10e]
Maximum activity (% rescue) [5]: <0 % rescue

COc1ccc(C(=O)NCCc2cccc(Cl)c2)cc1OC [Compound 8h]
EC50 (Table 1, INS-1 cell viability, Tm 0.1 μg/mL, 72 h): 24 ± 2.1 µM
Maximum activity (% rescue) (Table 1, INS-1 cells, Tm 0.1 μg/mL, 72 h, Tm alone 0%, DMSO control 100%): 46% ± 17%

O=C(NCc1ccc(Cl)cc1)c1ccc2c(c1)OCCO2 [Compound 9e]
maximum activity (β-cell-protective activity) [3]: 69%
EC50 [3]: 2.8 µM
Maximum activity (% rescue) [7]: 69% ± 12%
improvement of EC50 value over the corresponding ethylene derivative: ~6 fold

C#CCOc1ccc(C(=O)NCCc2ccccc2)cc1 [Compound 10i]
EC50 [4]: > 30 µM
Maximum activity (% rescue) [5]: 54% ± 8%

Cc1ccc(C(=O)NCCc2ccccc2)cc1 [Compound 10h]
EC50 [4]: 20 ± 5.4 µM
Maximum activity (% rescue) [5]: 25% ± 5%

O=C(NCCc1cccc(Cl)c1)c1ccc2c(c1)OCCO2 [Compound 1, N-(3-chlorophenethyl)-2,3-dihydrobenzo[b][1,4]dioxine-6-carboxamide]
maximum activity (β-cell-protective activity) [3]: 42%
EC50 (Rattus norvegicus, INS1, INS-1 cells, Tm-induced ER stress): 21 µM
EC50 (Rattus norvegicus, INS1, Table 1, INS-1 cell viability, Tm 0.1 μg/mL, 72 h): 21 ± 5.7 µM
Emax (Rattus norvegicus, INS1, Table 1, INS-1 cells, Tm 0.1 μg/mL, 72 h, Tm alone 0%, DMSO control 100%, read-out: Maximum activity (% rescue)): 42%

O=C(NCc1ccccc1Cl)c1cccc(CN2CCCCC2)c1 [Compound 12c]
EC50 [8]: 2.04 ± 0.18 µM
Maximum activity (% rescue) [9]: 93% ± 7%

O=C(NCc1cccc(Cl)c1)c1ccc2c(c1)OCCO2 [Compound 9c]
EC50 [6]: 9.5 ± 1.2 µM
Maximum activity (% rescue) [7]: 57% ± 11%

O=C(NCc1cccc(Br)c1)c1ccc2c(c1)OCCO2 [Compound 9d]
EC50 [6]: 5.5 ± 0.7 µM
Maximum activity (% rescue) [7]: 69% ± 9%

O=C(NCc1cccc(Cl)c1)c1ccc(CN2CCCCC2)cc1 [Compound 12g]
EC50 [8]: 2.2 ± 0.3 µM
Maximum activity (% rescue) [9]: 80% ± 9%

O=C(NCc1ccc(Cl)c(Cl)c1)c1ccc(CN2CCCCC2)cc1 [Compound 11d]
EC50 [3]: 1.8 ± 0.2 µM
Maximum activity (% rescue) [2]: 78% ± 10%
improvement of EC50 value over the corresponding ethylene derivative: 13 fold

O=C(NCc1ccc(Cl)cc1)c1cccc(CN2CCCCC2)c1 [Compound 12e]
EC50 [8]: 0.24 ± 0.06 µM
Maximum activity (% rescue) [9]: 93% ± 13%

O=C(NCc1cccc(Cl)c1)c1cccc(CN2CCCCC2)c1 [Compound 12d]
EC50 [8]: 0.405 ± 0.057 µM
Maximum activity (% rescue) [9]: 90% ± 11%

O=C(NCCc1ccccc1)c1cc(F)c(F)c(F)c1F [Compound 10p]
Maximum activity (% rescue) [5]: <0 % rescue

CCOc1cccc(C(=O)NCCc2ccccc2)c1 [Compound 10f]
EC50 [4]: 26 ± 4.5 µM
Maximum activity (% rescue) [5]: 49% ± 11%

CC(C)Sc1ccccc1C(=O)NCCc1ccccc1 [Compound 10b]
EC50 [4]: > 30 µM
Maximum activity (% rescue) [5]: 30% ± 8%

O=C(NCCc1ccccc1)c1cccc([N+](=O)[O-])c1 [Compound 10d]
Maximum activity (% rescue) [5]: <0 % rescue

COc1ccc(C(=O)NCCc2ccccc2)cc1C [Compound 10n]
EC50 [4]: 15 ± 3.2 µM
Maximum activity (% rescue) [5]: 56% ± 8%

CN(C)S(=O)(=O)c1ccc(C(=O)NCCc2ccccc2)cc1 [Compound 10j]
EC50 [4]: 19 ± 2.1 µM
Maximum activity (% rescue) [5]: 37% ± 6%

O=C(NCCc1ccccc1)c1ccc(F)c(F)c1F [Compound 10o]
EC50 [4]: 9.9 ± 2.1 µM
Maximum activity (% rescue) [5]: 23% ± 6%

Cc1ccccc1C(=O)NCCc1ccccc1 [Compound 10a]
Maximum activity (% rescue) [5]: 6% ± 5%

CS(=O)(=O)Nc1cccc(C(=O)NCCc2ccccc2)c1 [Compound 10g]
EC50 [4]: 25 ± 2.1 µM
Maximum activity (% rescue) [5]: 24% ± 8%

O=C(NCc1ccccc1Cl)c1ccc2c(c1)OCCO2 [Compound 9a]
EC50 [6]: 25 ± 6.9 µM
Maximum activity (% rescue) [7]: 43% ± 12%

O=C(NCCc1ccccc1)c1ccc(CN2CCCC2)cc1 [Compound 10k]
maximum activity (β-cell-protective activity) [3]: 31%
EC50 [4]: 11 ± 1.9 µM
Maximum activity (% rescue) [5]: 31% ± 7%

O=C(NCc1ccc(Cl)cc1)c1ccc(CN2CCCCC2)cc1 [Compound 11c]
EC50 [1]: 9.5 ± 1.1 µM
Maximum activity (% rescue) [2]: 77% ± 7%

O=C(NCCc1ccccc1)c1ccc(Cl)c(Cl)c1 [Compound 10m]
EC50 [4]: 17 ± 6.1 µM
Maximum activity (% rescue) [5]: 42% ± 11%

O=C(NCc1ccccc1Cl)c1ccc(CN2CCCCC2)cc1 [Compound 12f]
EC50 [8]: 13 ± 1.6 µM
Maximum activity (% rescue) [9]: 87% ± 15%

O=C(NCc1cccc(Br)c1)c1ccc(CN2CCCCC2)cc1 [Compound 12h]
EC50 [8]: 4.9 ± 0.7 µM
Maximum activity (% rescue) [9]: 81% ± 12%

O=C(NCc1ccc(Cl)cc1)c1ccccc1CN1CCCCC1 [Compound 12a]
EC50 [8]: 6.9 ± 1.2 µM
Maximum activity (% rescue) [9]: 73% ± 13%

COc1cccc(CNC(=O)c2cccc(CN3CCCCC3)c2)c1 [Compound 13a]
EC50 [8]: 0.964 ± 0.135 µM
Maximum activity (% rescue) [9]: 92% ± 10%

O=C(NCCc1ccc(Cl)c(Cl)c1)c1ccc(CN2CCCCC2)cc1 [Compound 11b]
EC50 [3]: 24 ± 2.7 µM
Maximum activity (% rescue) [2]: 71% ± 11%

O=C(NCCc1ccccc1)c1cccc(F)c1 [Compound 10c]
Maximum activity (% rescue) [5]: <0 % rescue

O=C(NCc1ccc(Cl)c(Cl)c1)c1ccc2c(c1)OCCO2 [Compound 9f]
EC50 [6]: 3.6 ± 0.9 µM
Maximum activity (% rescue) [7]: 68% ± 10%

O=C(NCc1ccccc1)c1cccc(CN2CCCCC2)c1 [Compound 12b]
EC50 [8]: 0.352 ± 0.062 µM
Maximum activity (% rescue) [9]: 95% ± 8%

O=C(NCc1cccc(C(F)(F)F)c1)c1cccc(CN2CCCCC2)c1 [Compound 13c]
EC50 [8]: 0.246 ± 0.043 µM
Maximum activity (% rescue) [9]: 91% ± 14%

COc1ccc(CNC(=O)c2cccc(CN3CCCCC3)c2)cc1 [Compound 13b]
EC50 [8]: 1.12 ± 0.21 µM
Maximum activity (% rescue) [9]: 93% ± 5%
